Source: patent US20190194179A1, “ANTIBIOTIC COMPOUNDS” (DISCUVA LTD., priority 2016, published 2019)
Structures can show the parent of a compound that is named as a salt. Where two headings read alike, the source gives them in different places.

Legend:
Assay type in all cases: cell-based
Neisseria gonorrhoeae = test: EC50 determination: plate-based broth growth assay (absorbance at 600 nm) of Neisseria gonorrhoeae; conditions: absorbance 600 nm after 20 hours at 37° C./5% CO2, read-out: IC50 (Inhibitory concentration) against Neisseria gonorrhoeae
In short: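 Mid-log culture diluted to ~10^5 cells/ml as inoculum and grown 20 hours at 37° C./5% CO2 across a 10-point compound dilution series. Growth read as absorbance at 600 nm; EC50 taken from transformed data as the concentration giving 50% response relative to no-compound controls.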

Enterococcus Spp. = test: EC50 determination: broth growth assay of Enterococcus Spp. (Isosensitest broth); conditions: Table 1, panel of bacteria, 37° C.
Procedure: (§1) Actively growing Neisseria gonorrhoeae on GC agar (based on; Spence et. al. (2008): Curr. Protoc. Microbiol. 8:4A.1.1-4A.1.26) plates are harvested and transferred to GC broth (based on; Spence et al (2008): Curr. Protoc. Microbiol. 8:4A.1.1-4A.1.26) to generate a liquid stock. This culture is allowed to establish and grow to mid-log phase (at 37° C./5% CO2), finally this culture is diluted (˜10^5 cells/ml) to generate a seed inoculum to establish plate-based broth assays. EC50 values were determined by assaying growth (absorbance read at 600 nm, after 20 hours at 37° C./5% CO2) of Neisseria gonorrhoeae across a 10-point dilution series of the test compound. The EC50 value is determined from transformed data to identify the concentration of compound giving a 50% response relative to control samples (no compound).
(§2) EC50 determination for Staphylococcus aureus and Enterococcus Spp. followed a similar procedure but were conducted using Isosensitest broth (Oxoid) with incubations at 37° C. in atmospheric air. Final absorbance reads were conducted during the late exponential growth phase.

Staphylococcus aureus = test: EC50 determination: broth growth assay of Staphylococcus aureus (Isosensitest broth); conditions: Table 1, panel of bacteria, 37° C., read-out: IC50 concentration against Staphylococcus aureus
Procedure: as §1, §2

[1] = Enterococcus faecalis, read-out: IC50 concentration against Entercoccus faecalis
[2] = Enterococcus faecium, read-out: IC50 concentration against Enterococcus faecium

Structure (SMILES): FC(F)(F)c1cc2[nH]c(Nc3nc4ccccc4o3)nc2cn1 [Example 170, N-(6-(Trifluoromethyl)-1H-imidazo[4,5-c]pyridin-2-yl)benzo[d]oxazol-2-amine]
- IC50 (Neisseria gonorrhoeae): ≤ 1000 nM
- IC50 (Enterococcus Spp.; [1]): ≤ 10000 nM
- IC50 (Enterococcus Spp.; [2]): ≤ 10000 nM
- IC50 (Staphylococcus aureus): ≤ 10000 nM

Structure (SMILES): Clc1ccc2nc(Nc3nc4cnccc4o3)oc2c1 [Example 159, N-(6-Chlorobenzo[d]oxazol-2-yl)oxazolo[4,5-c]pyridin-2-amine]
- IC50 (Neisseria gonorrhoeae): ≤ 100000 nM
- IC50 (Enterococcus Spp.; [1]): ≤ 100000 nM
- IC50 (Enterococcus Spp.; [2]): ≤ 100000 nM
- IC50 (Staphylococcus aureus): ≤ 100000 nM

Structure (SMILES): FC(F)(F)c1ccc2oc(Nc3nnco3)nc2c1 [Example 67, N-(1,3,4-Oxadiazol-2-yl)-5-(trifluoromethyl)benzo[d]oxazol-2-amine]
- IC50 (Neisseria gonorrhoeae): ≤ 100 nM
- IC50 (Enterococcus Spp.; [1]): ≤ 10000 nM
- IC50 (Enterococcus Spp.; [2]): ≤ 1000 nM
- IC50 (Staphylococcus aureus): ≤ 1000 nM

Structure (SMILES): FC(F)(F)c1cc2oc(Nc3nc4cc(Cl)ccc4o3)nc2cn1 [Example 165, N-(5-Chlorobenzo[d]oxazol-2-yl)-6-(trifluoromethyl) oxazolo[4,5-c]pyridin-2-amine]
- IC50 (Neisseria gonorrhoeae): ≤ 1000 nM
- IC50 (Enterococcus Spp.; [1]): ≤ 10000 nM
- IC50 (Enterococcus Spp.; [2]): ≤ 10000 nM
- IC50 (Staphylococcus aureus): ≤ 10000 nM

Structure (SMILES): FC(F)(F)c1cc2nc(Nc3nnc(CN4CCCC4)o3)oc2cc1Cl [Example 80, 6-Chloro-N-(5-(pyrrolidin-1-ylmethyl)-1,3,4-oxadiazol-2-yl)-5-(trifluoromethyl)benzo[d]oxazol-2-amine]
- IC50 (Neisseria gonorrhoeae): ≤ 100 nM
- IC50 (Enterococcus Spp.; [1]): ≤ 1000 nM
- IC50 (Enterococcus Spp.; [2]): ≤ 10000 nM
- IC50 (Staphylococcus aureus): ≤ 1000 nM

Structure (SMILES): Cc1nnc(Nc2nc3cc(C(F)(F)F)ccc3o2)[nH]1 [Example 117, N-(5-Methyl-4H-1,2,4-triazol-3-yl)-5-(trifluoromethyl)benzo[d]oxazol-2-amine]
- IC50 (Neisseria gonorrhoeae): ≤ 1000 nM
- IC50 (Enterococcus Spp.; [1]): ≤ 10000 nM
- IC50 (Enterococcus Spp.; [2]): ≤ 10000 nM
- IC50 (Staphylococcus aureus): ≤ 1000 nM

Structure (SMILES): Clc1cccc2oc(Nc3nnc(CN4CCCC4)[nH]3)nc12 [Example 130, 4-Chloro-N-(5-(pyrrolidin-1-ylmethyl)-4H-1,2,4-triazol-3-yl)benzo[d]oxazol-2-amine]
- IC50 (Neisseria gonorrhoeae): ≤ 10000 nM

Structure (SMILES): Clc1cccc2oc(Nc3nnco3)nc12 [Example 120, 4-Chloro-N-(1,3,4-oxadiazol-2-yl)benzo[d]oxazol-2-amine]
- IC50 (Neisseria gonorrhoeae): ≤ 1000 nM

Structure (SMILES): Oc1ccc2nc(Nc3nnco3)oc2c1 [Example 177, 2-((1,3,4-Oxadiazol-2-yl)amino)ben-zo[d]oxazol-6-ol]
- IC50 (Neisseria gonorrhoeae): ≤ 10000 nM

Structure (SMILES): CC(C)c1nnc(Nc2nc3cc(C(F)(F)F)c(Cl)cc3o2)[nH]1 [Example 139, 6-Chloro-N-(5-isopropyl-4H-1,2,4-triazol-3-yl)-5-(trifluoromethyl)benzo[d]oxazol-2-amine]
- IC50 (Neisseria gonorrhoeae): ≤ 1000 nM

Structure (SMILES): Cc1nnc(Nc2nc3cc(C(F)(F)F)ccc3o2)n1C [Example 143, N-(4,5-dimethyl-4H-1,2,4-triazol-3-yl)-5-(trifluoromethyl)benzo[d]oxazol-2-amine]
- IC50 (Neisseria gonorrhoeae): ≤ 1000 nM

Structure (SMILES): Cc1nnc(Nc2nc3c(F)cccc3o2)o1 [Example 62, 4-Fluoro-N-(5-methyl-1,3,4-oxadiazol-2-yl)benzo[d]oxazol-2-amine]
- IC50 (Neisseria gonorrhoeae): ≤ 1000 nM

Structure (SMILES): CC(C)(C)c1csc(Nc2nc3cc(C(F)(F)F)ccc3o2)n1 [Example 13, N-(4-(tert-butyl)thiazol-2-yl)-5-(trifluoromethyl)benzo[d]oxazol-2-amine]
- IC50 (Neisseria gonorrhoeae): ≤ 10000 nM

Structure (SMILES): Fc1cc2oc(Nc3nnco3)nc2cc1OC(F)(F)F [Example 207, 6-Fluoro-N-(1,3,4-oxadiazol-2-yl)-5-(trifluoromethoxy) benzo[d]ox-azol-2-amine]
- IC50 (Neisseria gonorrhoeae): ≤ 100 nM

Structure (SMILES): FC(F)(F)c1cc2oc(Nc3nnco3)nc2cc1Cl [Example 149, 5-Chloro-N-(1,3,4-oxadiazol-2-yl)-6-(trifluoromethyl)benzo[d]oxazol-2-amine]
- IC50 (Neisseria gonorrhoeae): ≤ 100 nM

Structure (SMILES): Cc1nnc(Nc2nc3cc(Cl)ccc3[nH]2)o1 [Example 85, N-(5-Chloro-1H-benzo[d]imidazol-2-yl)-5-methyl-1,3,4-oxadiazol-2-amine]
- IC50 (Neisseria gonorrhoeae): ≤ 1000 nM

Structure (SMILES): Cc1nnc(Nc2nc3c(C)cc(Cl)cc3o2)[nH]1 [Example 141, 6-Chloro-4-methyl-N-(5-methyl-4H-1,2,4-triazol-3-yl)benzo[d]oxazol-2-amine]
- IC50 (Neisseria gonorrhoeae): ≤ 1000 nM

Structure (SMILES): FC(F)(F)c1ccc2oc(Nc3nc4cnccc4o3)nc2c1 [Example 60, N-(5-(triFluoromethyl)benzo[d]oxazol-2-yl)oxazolo[4,5-c]pyridin-2-amine]
- IC50 (Neisseria gonorrhoeae): ≤ 100 nM
- IC50 (Enterococcus Spp.; [1]): ≤ 1000 nM
- IC50 (Enterococcus Spp.; [2]): ≤ 10000 nM
- IC50 (Staphylococcus aureus): ≤ 10000 nM

Structure (SMILES): NC(=O)c1csc(Nc2nc3cc(C(F)(F)F)c(Cl)cc3o2)n1 [Example 34, 2-((6-Chloro-5-(trifluoromethyl)benzo[d]oxazol-2-yl)amino)thiazole-4-carboxamide]
- IC50 (Neisseria gonorrhoeae): ≤ 1000 nM

Structure (SMILES): N#Cc1nnc(Nc2nc3ccc(F)cc3o2)o1 [Example 218, 5-((6-Fluorobenzo[d]oxazol-2-yl)amino)-1,3,4-oxadiazole-2-carbonitrile]
- IC50 (Neisseria gonorrhoeae): ≤ 1000 nM

Structure (SMILES): Cn1cc(Nc2nc3cc(C(F)(F)F)ccc3o2)nn1 [Example 12, N-(1-Methyl-1H-1,2,3-triazol-4-yl)-5-(trifluoromethyl)benzo[d]oxazol-2-amine]
- IC50 (Neisseria gonorrhoeae): ≤ 10000 nM

Structure (SMILES): COCCn1c(C)nnc1Nc1nc2cc(C(F)(F)F)c(Cl)cc2o1 [Example 142, 6-Chloro-N-(4-(2-methoxyethyl)-5-methyl-4H-1,2,4-triazol-3-yl)-5-(trifluoromethyl)benzo[d]oxazol-2-amine]
- IC50 (Neisseria gonorrhoeae): ≤ 1000 nM

Structure (SMILES): COCCOc1ccc2nc(Nc3nnco3)oc2c1 [Example 193, 6-(2-methoxyethoxy)-N-(1,3,4-oxadiazol-2-yl)benzo[d]oxazol-2-amine]
- IC50 (Neisseria gonorrhoeae): ≤ 1000 nM

Structure (SMILES): O=C(O)c1nc(Nc2nc3ccc(Cl)cc3o2)co1 [Example 182, 4-((6-chlorobenzo [d]oxazol-2-yl)amino)oxa-zole-2-carboxylic acid]
- IC50 (Neisseria gonorrhoeae): ≤ 100000 nM

Structure (SMILES): Fc1cc(Cl)cc2oc(Nc3nnco3)nc12 [Example 176, 6-Chloro-4-fluoro-N-(1,3,4-oxadiazol-2-yl)benzo[d]ox-azol-2-amine]
- IC50 (Neisseria gonorrhoeae): ≤ 1000 nM

Structure (SMILES): Cn1c(Nc2nnco2)nc2cc(C(F)(F)F)ccc21 [Example 69, N-(1-methyl-5-(trifluoromethyl)-1H-benzo[d]imidazol-2-yl)-1,3,4-oxadiazol-2-amine]
- IC50 (Neisseria gonorrhoeae): ≤ 1000 nM

Structure (SMILES): CN(C)Cc1nnc(Nc2nc3cc(C(F)(F)F)ccc3o2)o1 [Example 82, N-(5-((Dimethylamino)methyl)-1,3,4-oxadiazol-2-yl)-5-(trifluoromethyl)benzo[d]oxazol-2-amine]
- IC50 (Neisseria gonorrhoeae): ≤ 1000 nM

Structure (SMILES): FC(F)(F)c1ccc2nc(Nc3nnc(C4CC4)o3)oc2c1 [Example 105, N-(5-Cyclopropyl-1,3,4-oxadiazol-2-yl)-6-(trifluoromethyl)benzo[d]oxazol-2-amine]
- IC50 (Neisseria gonorrhoeae): ≤ 100 nM
- IC50 (Enterococcus Spp.; [1]): ≤ 1000 nM
- IC50 (Enterococcus Spp.; [2]): ≤ 1000 nM
- IC50 (Staphylococcus aureus): ≤ 1000 nM

Structure (SMILES): Clc1ccc2nc(Nc3cocn3)oc2c1 [Example 221, 6-Chloro-N-(oxazol-4-yl)benzo[d]oxazol-2-amine]
- IC50 (Neisseria gonorrhoeae): ≤ 1000 nM

Structure (SMILES): Cc1nnc(Nc2nc3c(Cl)cc(Cl)cc3o2)[nH]1 [Example 123, 4,6-Dichloro-N-(5-methyl-4H-1,2,4-triazol-3-yl)benzo[d]oxazol-2-amine]
- IC50 (Neisseria gonorrhoeae): ≤ 1000 nM

Structure (SMILES): FC(F)(F)c1ccc2oc(Nc3nnc(C4CC4)o3)nc2c1 [Example 103, N-(5-Cyclopropyl-1,3,4-oxadiazol-2-yl)-5-(trifluoromethyl)benzo[d]oxazol-2-amine]
- IC50 (Neisseria gonorrhoeae): ≤ 100 nM

Structure (SMILES): Clc1ccc2nc(Nc3cnoc3)oc2c1 [Example 225, 6-Chloro-N-(isoxazol-4-yl)benzo[d]oxazol-2-amine]
- IC50 (Neisseria gonorrhoeae): ≤ 100000 nM

Structure (SMILES): O=C(NC1CC1)c1csc(Nc2nc3ccccc3o2)n1 [Example 15, 2-(Benzo[d]oxazol-2-ylamino)-N-cyclopropylthiazole-4-carboxamide]
- IC50 (Neisseria gonorrhoeae): ≤ 1000 nM

Structure (SMILES): FC(F)(F)c1ccc2oc(Nc3nnc(CN4CCCC4)[nH]3)nc2c1 [Example 128, N-(5-(Pyrrolidin-1-ylmethyl)-4H-1,2,4-triazol-3-yl)-5-(trifluoromethyl)benzo[d]oxazol-2-amine]
- IC50 (Neisseria gonorrhoeae): ≤ 1000 nM

Structure (SMILES): FC(F)(F)c1cc2oc(Nc3nc4ccccc4[nH]3)nc2cn1 [Example 166, N-(1H-Benzo[d]imidazol-2-yl)-6-(trifluoromethyl) oxazolo[4,5-c]pyridin-2-amine]
- IC50 (Neisseria gonorrhoeae): ≤ 1000 nM

Structure (SMILES): FC(F)(F)c1ccc2oc(Nc3nnc(C(F)(F)F)o3)nc2c1 [Example 110, 5-(Trifluoromethyl)-N-(5-(trifluoromethyl)-1,3,4-oxadiazol-2-yl)benzo[d]oxazol-2-amine]
- IC50 (Neisseria gonorrhoeae): ≤ 100000 nM

Structure (SMILES): FC(F)(F)c1ccc2oc(Nc3nnc(C4CCNCC4)o3)nc2c1 [Example 145, N-(5-(Piperidin-4-yl)-1,3,4-oxadiazol-2-yl)-5-(trifluoromethyl)benzo[d]oxazol-2-amine hydrochloride]
- IC50 (Neisseria gonorrhoeae): ≤ 100000 nM

Structure (SMILES): NC(=O)c1csc(Nc2nc3cc(C(F)(F)F)ccc3o2)n1 [Example 21, 2-((5-(Trifluoromethyl)benzo[d]oxazol-2-yl)amino)thiazole-4-carboxamide]
- IC50 (Neisseria gonorrhoeae): ≤ 1000 nM

Structure (SMILES): Cc1nnc(Nc2nc3cc(C(F)(F)F)ccc3n2C)o1 [Example 88, 5-Methyl-N-(1-methyl-5-(trifluoromethyl)-1H-benzo[d]imidazol-2-yl)-1,3,4-oxadiazol-2-amine]
- IC50 (Neisseria gonorrhoeae): ≤ 1000 nM
